Biological target: PFKFB3 (Homo sapiens (Human), UniProt Q16875)
Assay: PFKFB3 kinase activity, Method A (F-2,6-P2 production, coupled PPi-PFK/NADH assay)
Type: biochemical
Source text: The PFKFB3 (placenta form) and PFKFB4 were produced and purified to homogeneity from E. coli at Biovitrum and at Sprint Bioscience. All other reagents were purchased from commercial sources. Two independent methods have been used for determination of the kinase activity of PFKFB3 (Method A and Method B). Method B has been used for determination of the kinase activity of PFKFB4.
Method A: The kinase activity of the bi-functional enzyme is readily quantified based on the production of F-2,6-P2 as described by Van Schaftingen et al. (1982) Eur. J. Biochem. 129, 191-5. This sensitive assay is based on the potent activation of pyrophosphate dependent phosphofructokinase-1 (PPi-PFK) from potato tubers by F-2,6-P2. The use of a series of coupled enzymes leads to a consumption of NADH (nicotinamide adenine dinucleotide) that can be followed spectrophotometrically (an updated protocol is available in Van Schaftingen, (1984) Methods of Enzymatic Analysis (Bergmeyer, H. U., ed.), 3rd edn., vol. 6, pp. 335-341, Verlag Chemie, Weinheim). A protocol for measurements in 96-well microtiter plate format is also available (Bruni et al., (1989) Anal. Biochem. 178, 324-6). These assay protocols have been adopted for the measurement of the kinase activity of PFKFB3 with some modifications as described in the protocol below.
The assay was run in 96-well microtiter plates (Costar 3365 round bottom polypropylene) by consecutive additions of 30 μl each of a test compound solution (diluted from a DMSO stock solution), a PFKFB3 solution and a substrate (fructose-6-phosphate (F6P) and adenosine-5′-triphosphate (ATP)) containing solution. […] The final concentrations of all reagents in a total assay volume of 90 μl per well were: • 50 mM Tris-acetate at pH 8.0 • 0.1 mM EDTA (ethylene diamine tetraacetic acid) • 10 mM MgCl2 • 5 mM Na2HPO4 (buffered by the Tris-acetate to a final pH of 8.0) • 5 nM PFKFB3 • 4 μM ATP • 100 μM F6P (acid treated and then neutralized to remove any contaminating F-2,6-P2; see Van Schaftingen, 1984) • 1 mM dithiothreitol (DTT) • 0.005% Tween-20
A test compound at various concentrations (which also added 0.83% DMSO to the final solution)
The enzymatic reaction was allowed to proceed for 10 minutes at room temperature while on a plate shaker at medium speed (750 RPM). The reaction was then terminated by the addition of 90 μl of a 0.4 M NaOH solution to all wells. The plate was then placed on the plateshaker at the same speed for two minutes to allow sufficient mixing. All samples were then diluted by a factor of 10 by transferring 20 μl from each well to the corresponding well of a new plate with 180 μl distilled water predispensed to all wells.
The next step in the protocol was quantification of the levels of F-2,6-P2 in each well of the microtiter plate. This was done by transferring 20 μl of the content in each well to the corresponding position in a new plate (Nunc 269620 transparent 96-well plate). […] To ensure that all measured values were within the linear range of the response (measured to be between 0-1 nM of F-2,6-P2 as also described by Van Schaftingen) the same volume of a 2.5 nM and a 5.0 nM standard sample were also added to column 12 (as all samples were diluted five-fold in the assay procedure this corresponds to 0.5 and 1.0 nM samples). The procedure then involved consecutive additions of three solutions with the following premixed components: • Assay-mix (20 μl): Tris-acetate at pH 8.0, NADH and Mg(OAc)2 • PPi/F6P-mix (40 μl): Pyrophosphate and F6P • Enzyme-mix (20 μl): Tris-acetate at pH 8.0, aldolase, triose phosphate isomerase, glycerol-3-phosphate dehydrogenase, pyrophosphate-dependent phosphofructokinase from potato tubers and bovine serum albumin (BSA) […]

Chain of PFKFB3 (Q16875 whole entry): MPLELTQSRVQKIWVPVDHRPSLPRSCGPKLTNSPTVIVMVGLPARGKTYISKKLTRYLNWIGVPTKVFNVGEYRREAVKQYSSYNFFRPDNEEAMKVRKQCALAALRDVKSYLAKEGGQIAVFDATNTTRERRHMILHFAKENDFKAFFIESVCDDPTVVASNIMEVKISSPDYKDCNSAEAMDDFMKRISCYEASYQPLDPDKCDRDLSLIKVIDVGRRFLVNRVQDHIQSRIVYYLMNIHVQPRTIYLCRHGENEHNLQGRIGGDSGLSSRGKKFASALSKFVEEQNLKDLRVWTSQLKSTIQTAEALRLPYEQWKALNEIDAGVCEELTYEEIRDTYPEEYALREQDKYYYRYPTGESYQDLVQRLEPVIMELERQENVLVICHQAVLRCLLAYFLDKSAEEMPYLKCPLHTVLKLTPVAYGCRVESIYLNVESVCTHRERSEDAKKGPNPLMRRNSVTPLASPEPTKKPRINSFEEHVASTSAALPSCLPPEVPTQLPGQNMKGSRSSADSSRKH

Structure (SMILES)	IC50 [nM]
Cc1c(S(=O)(=O)Nc2cccc(C(=O)O)c2)sc2ccc(Cl)cc12 [Example 38, 3-{[(5-Chloro-3-methyl-1-benzothien-2-yl)sulfonyl]amino}benzoic acid]	180
Cc1c(S(=O)(=O)Nc2cccc(C(=O)O)c2)sc2ccc(C(C)C)cc12 [Example 5, 3-{[(5-Isopropyl-3-methyl-1-benzothien-2-yl)sulfonyl]amino}benzoic acid]	30
